How the values were obtained:
[1] = system: Vaccinia; format: cell-based
[2] = system: Cowpox; format: cell-based

Nc1ccn(C[C@@H](CO)OCP(=O)(O)O)c(=O)n1 [CDV]
PR CDV EC50 [1]: 4.9 µg/mL
PR CDV EC50 [2]: 10.3 µg/mL

From patent US20050276815A1, “Antiviral activity from medicinal mushrooms” (priority 2004, published 2005)
